Data published in patent publication US12037344B2, “NLRP3 modulators” (INNATE TUMOR IMMUNITY, INC., priority 2018, dated 2024).
Like-named read-outs stand apart in the source and are kept apart here.

Experiments:
THP-1 cells = test: Measurement of IL-1β production, hTRF protocol (second alternative procedure), THP-1 cells; type: cell-based, human
Outline: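 Compounds, dilution series starting at a final 10 μM, were incubated 2 hours at 37° C with PMA-differentiated THP-1 cells (50 ng/ml overnight; 50,000 cells/well, 2% FBS RPMI). Released IL-1β quantified in supernatant by hTRF kit with 1:40 antibody dilution, 4° C overnight, 665/615 nm ratio.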

TLR7 = biological target: T1, TLR7 (Homo sapiens, UniProt Q9NYK1); test: In vitro human TLR7 binding reporter assay (HEK-Blue, NF-kB/AP1-inducible SEAP); type: cell-based; settings: read-out: TLR7 Agonist EC50
T1 construct: human HEK-Blue cells co-expressing a TLR7 or TLR8 gene
T1 sequence (Q9NYK1 27-1049): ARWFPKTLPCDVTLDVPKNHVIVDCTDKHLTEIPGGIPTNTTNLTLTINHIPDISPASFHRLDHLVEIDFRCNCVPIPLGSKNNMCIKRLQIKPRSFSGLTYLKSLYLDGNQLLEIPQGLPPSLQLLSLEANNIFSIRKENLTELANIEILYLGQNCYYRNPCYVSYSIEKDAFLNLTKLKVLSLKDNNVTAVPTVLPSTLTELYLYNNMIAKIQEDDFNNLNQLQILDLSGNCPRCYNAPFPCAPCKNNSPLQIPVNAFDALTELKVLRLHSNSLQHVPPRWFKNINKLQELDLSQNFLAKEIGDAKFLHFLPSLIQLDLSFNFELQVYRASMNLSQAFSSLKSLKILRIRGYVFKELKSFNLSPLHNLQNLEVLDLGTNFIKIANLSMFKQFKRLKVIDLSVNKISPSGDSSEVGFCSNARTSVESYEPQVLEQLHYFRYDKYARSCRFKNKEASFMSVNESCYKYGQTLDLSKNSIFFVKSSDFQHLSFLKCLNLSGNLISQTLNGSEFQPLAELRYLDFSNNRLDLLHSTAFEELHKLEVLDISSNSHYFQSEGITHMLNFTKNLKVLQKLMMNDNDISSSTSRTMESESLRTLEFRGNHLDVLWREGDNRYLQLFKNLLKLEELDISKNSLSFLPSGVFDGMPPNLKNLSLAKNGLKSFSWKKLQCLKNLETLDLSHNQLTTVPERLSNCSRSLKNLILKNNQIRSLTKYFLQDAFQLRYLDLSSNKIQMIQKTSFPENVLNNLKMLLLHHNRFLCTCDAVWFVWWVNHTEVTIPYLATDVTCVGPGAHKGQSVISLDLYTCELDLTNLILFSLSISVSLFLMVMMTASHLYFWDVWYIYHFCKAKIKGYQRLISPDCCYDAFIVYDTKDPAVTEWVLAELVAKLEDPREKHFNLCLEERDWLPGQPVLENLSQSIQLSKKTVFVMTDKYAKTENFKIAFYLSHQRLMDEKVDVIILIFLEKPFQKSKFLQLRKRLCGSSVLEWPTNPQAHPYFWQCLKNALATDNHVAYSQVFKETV
Outline: (§1)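 HEK-Blue cells expressing human TLR7 or TLR8 with NF-kB/AP1-inducible SEAP reporter, plated 24 h, then compound-treated 18 h at 37° C, 5% CO2. EC50 normalized to 100% Ymax set by 50 μM reference standard.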

TLR8 = biological target: T2, TLR8 (Homo sapiens, UniProt Q9NR97); test: In vitro human TLR8 binding reporter assay (HEK-Blue, NF-kB/AP1-inducible SEAP); type: cell-based; settings: read-out: TLR8 Agonist EC50
T2 construct: human HEK-Blue cells co-expressing a TLR7 or TLR8 gene
T2 sequence (Q9NR97 27-1041): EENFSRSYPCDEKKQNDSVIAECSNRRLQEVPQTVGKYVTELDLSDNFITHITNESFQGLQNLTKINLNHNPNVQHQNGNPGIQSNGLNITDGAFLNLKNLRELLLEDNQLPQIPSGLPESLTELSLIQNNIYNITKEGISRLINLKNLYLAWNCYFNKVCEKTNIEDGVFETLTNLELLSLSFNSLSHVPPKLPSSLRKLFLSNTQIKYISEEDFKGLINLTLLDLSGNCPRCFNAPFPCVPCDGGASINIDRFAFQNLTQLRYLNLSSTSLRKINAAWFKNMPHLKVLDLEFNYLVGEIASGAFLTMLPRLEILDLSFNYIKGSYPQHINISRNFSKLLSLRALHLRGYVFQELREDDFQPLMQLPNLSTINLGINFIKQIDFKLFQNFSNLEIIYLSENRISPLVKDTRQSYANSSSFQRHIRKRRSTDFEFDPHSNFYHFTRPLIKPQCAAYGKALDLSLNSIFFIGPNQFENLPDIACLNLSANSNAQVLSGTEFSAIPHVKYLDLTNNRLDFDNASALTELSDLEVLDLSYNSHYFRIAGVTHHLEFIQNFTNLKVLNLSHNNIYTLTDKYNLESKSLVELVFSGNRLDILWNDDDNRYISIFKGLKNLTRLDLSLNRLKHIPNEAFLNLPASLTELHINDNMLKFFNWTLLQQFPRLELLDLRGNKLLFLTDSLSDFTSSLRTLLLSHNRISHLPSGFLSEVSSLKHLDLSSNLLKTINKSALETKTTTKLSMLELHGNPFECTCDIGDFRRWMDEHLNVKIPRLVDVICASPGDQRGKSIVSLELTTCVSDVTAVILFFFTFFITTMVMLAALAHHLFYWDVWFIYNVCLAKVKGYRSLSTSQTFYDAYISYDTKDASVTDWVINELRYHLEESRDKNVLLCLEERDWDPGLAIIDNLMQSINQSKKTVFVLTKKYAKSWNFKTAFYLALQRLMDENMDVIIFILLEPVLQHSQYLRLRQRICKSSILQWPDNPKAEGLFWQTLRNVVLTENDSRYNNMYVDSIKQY
Outline: as §1

[1] = Homo sapiens, THP-1, IL-1β production, human, read-out: NLRP3 hILIB EC50
[2] = Homo sapiens, THP-1, IL-1β production, human cells, read-out: NLRP3 hILIB EC50

EC50 (THP-1 cells; [1]) | EC50 (TLR7; activity range class) | EC50 (TLR8; activity range class) | EC50 (THP-1 cells; [2]) | EC50 (TLR7; activity range) | EC50 (TLR8; activity range) | EC50 (THP-1 cells; IL-1β production, human, read-out: NLRP3 hILIB EC50) | SMILES | EC50 (THP-1 cells; Homo sapiens, THP-1, read-out: NLRP3 hILIB EC50)
25.8 µM | > 100 µM | > 100 µM |  |  |  |  | CN1CCOC(C(=O)NCCn2cc3c(n2)c(N)nc2cc(-c4cc[nH]n4)ccc23)C1 (single isomer, unassigned) [Example 179] | 
2.57 µM | > 100 µM | > 100 µM |  |  |  |  | Cc1nc(Cn2cc3c(N)nc4cc(-c5cc[nH]n5)ccc4c3n2)no1 [Example 355] | 
0.99 µM | > 100 µM | > 100 µM |  |  |  |  | CC(C)(F)C(=O)N1CCOCC1Cn1cc2c(N)nc3cc(-c4ccn[nH]4)ccc3c2n1 (stereo not drawn) [Example 264] | 
0.42 µM | > 100 µM | > 100 µM |  |  |  |  | Nc1nc2cc(-c3cc[nH]n3)ccc2c2cn(CCCOc3ccccc3F)nc12 [Example 7] | 
 |  |  | 0.84 µM | > 100 µM | > 100 µM |  | Nc1nc2cc(-c3cc[nH]n3)ccc2c2[nH]c(CN3C[C@H]4COC[C@H]4C3)cc12 [Example 490] | 
 | > 100 µM | > 100 µM |  |  |  | 0.45 µM | CC(CCO)n1cc2c(N)nc3cc(-c4cc[nH]n4)ccc3c2n1 (single isomer, unassigned) [Example 288, 3-(4-amino-7-(1H-pyrazol-3-yl)-2H-pyrazolo[4,3-c]quinolin-2-yl)butan-1-ol] | 
 |  |  | 17.3 µM | > 100 µM | > 100 µM |  | COC1CCN(C(=O)CC(C)n2cc3c(N)nc4cc(-c5cc[nH]n5)ccc4c3n2)CC1 (stereo not drawn) [Example 623] | 
0.45 µM | > 100 µM | > 100 µM |  |  |  |  | Nc1nc2cc(-c3cc[nH]n3)ccc2c2cn(CCNC(=O)c3ncccc3F)nc12 [Example 53] | 
 |  |  | 2.34 µM | > 100 µM | > 100 µM |  | Nc1nc2cc(-c3cc[nH]n3)ccc2c2nn(CCC(=O)NC3CCC3)cc12 [Example 504] | 
0.46 µM | > 100 µM | > 100 µM |  |  |  |  | Nc1nc2cc(-c3cc[nH]n3)ccc2c2nn([C@H]3CC[C@@H](O)CC3)cc12 [Example 394] | 
 |  |  | 1.82 µM | > 100 µM | > 100 µM |  | CNC(=O)CCn1cc2c(N)nc3cc(-n4cccn4)ccc3c2n1 [Example 556] | 
3.83 µM | 20 to 100 µM | > 100 µM |  |  |  |  | CS(=O)(=O)NCCn1cc2c(n1)c(N)nc1cc(-c3cc[nH]n3)ccc12 [Example 113, N-{2-[4-amino-7-(1H-pyrazol-3-yl)-2H-pyrazolo[3,4-c]quinolin-2-yl]ethyl}methanesulfonamide] | 
4.93 µM | > 100 µM | > 100 µM |  |  |  |  | Nc1nc2cc(-c3cc[nH]n3)ccc2c2cn(CCNC(=O)c3cccnc3)nc12 [Example 38] | 
0.25 µM | > 100 µM | > 100 µM |  |  |  |  | CC(O)CCn1cc2c(N)nc3cc(-c4ccn[nH]4)ccc3c2n1 (stereo not drawn) [Example 284] | 
0.65 µM | > 100 µM | > 100 µM |  |  |  |  | COCCn1cc2c(N)nc3cc(-c4cccs4)ccc3c2n1 [Example 248, 2-(2-methoxyethyl)-7-(thiophen-2-yl)-2H-pyrazolo[4,3-c]quinolin-4-amine] | 
0.83 µM | > 100 µM | > 100 µM |  |  |  |  | CCC(CO)Cn1cc2c(N)nc3cc(-c4cc[nH]n4)ccc3c2n1 (stereo not drawn) [Example 356] | 
0.56 µM | > 100 µM | > 100 µM |  |  |  |  | Nc1nc2cc(-c3cc[nH]n3)ccc2c2cn(CCCOc3ccccn3)nc12 [Example 3, 7-(1H-pyrazol-3-yl)-2-[3-(pyridin-2-yloxy)propyl]-2H-pyrazolo[3,4-c]quinolin-4-amine] | 
 |  |  | 13.4 µM | > 100 µM | > 100 µM |  | Nc1nc2cc(-c3ccn[nH]3)ccc2c2nn(CC3(C(=O)N4CCCC4)CC3)cc12 [Example 607] | 
 |  |  | 18.1 µM | > 100 µM | > 100 µM |  | CC(C)(Cn1cc2c(N)nc3cc(-c4ccn[nH]4)ccc3c2n1)C(=O)NCCS(C)(=O)=O [Example 609] | 
0.26 µM | > 100 µM | > 100 µM |  |  |  |  | CS(=O)(=O)NCCn1cc2c(N)nc3cc(-c4cc[nH]n4)ccc3c2n1 [Example 206, N-(2-(4-amino-7-(1H-pyrazol-3-yl)-2H-pyrazolo[4,3-c]quinolin-2-yl)ethyl)methanesulfonamide] | 
 |  |  | 18.6 µM | > 100 µM | > 100 µM |  | CC(C(=O)N1CC(C)(O)C1)n1cc2c(N)nc3cc(-c4ccn[nH]4)ccc3c2n1 (stereo not drawn) [Example 578] | 
 |  |  | 2.11 µM | > 100 µM | > 100 µM |  | CN(C)C(=O)Cn1cc2c(N)nc3cc(-n4cccn4)ccc3c2n1 [Example 553] | 
5.39 µM | > 100 µM | > 100 µM |  |  |  |  | Nc1nc2cc(-c3cc[nH]n3)ccc2c2nn(C[C@@H]3C[C@H](O)CN3)cc12 [Example 382] | 
 |  |  | 2.62 µM | > 100 µM | > 100 µM |  | Nc1nc2cc(-c3ccn[nH]3)ccc2c2nn(CCCNS(=O)(=O)C3CC3)cc12 [Example 589] | 
1.67 µM | > 100 µM | > 100 µM |  |  |  |  | Nc1nc2cc(-c3ccn[nH]3)ccc2c2sc(CCNC(=O)C3CCO3)nc12 (stereo not drawn) [Example 137, N-[2-[4-amino-7-(1H-pyrazol-5-yl)-[1,3]thiazolo[4,5-c]quinolin-2-yl]ethyl]oxetane-2-carboxamide] | 
 |  |  | 0.24 µM | > 100 µM | > 100 µM |  | N#CC1(Cn2cc3c(N)nc4cc(-c5cc[nH]n5)ccc4c3n2)CC1 [Example 464] | 
 |  |  | 0.62 µM | > 100 µM | > 100 µM |  | Cc1[nH]c2c(c(N)nc3cc(-c4cc[nH]n4)ccc32)c1C [Example 423, 2,3-dimethyl-7-(1H-pyrazol-3-yl)-1H-pyrrolo[3,2-c]quinolin-4-amine] | 
 |  |  | 3.78 µM | > 100 µM | > 100 µM |  | Nc1nc2cc(-c3cc[nH]n3)c(F)cc2c2c1cnn2CCO [Example 403] | 
0.73 µM | > 100 µM | 20 to 100 µM |  |  |  |  | Nc1nc2cc(-c3cc[nH]n3)ccc2c2cn(CCNC(=O)c3cccc(Cl)c3)nc12 [Example 82] | 

SMILES | EC50 (THP-1 cells; [1]) | EC50 (TLR7; activity range class) | EC50 (TLR8; activity range class) | EC50 (THP-1 cells; [2]) | EC50 (TLR7; activity range) | EC50 (TLR8; activity range) | EC50 (THP-1 cells; IL-1β production, human, read-out: NLRP3 hILIB EC50) | EC50 (THP-1 cells; Homo sapiens, THP-1, read-out: NLRP3 hILIB EC50)
CC(CO)n1cc2c(N)nc3cc(-c4ccn[nH]4)ccc3c2n1 (stereo not drawn) [Example 253, 2-[4-amino-7-(1H-pyrazol-5-yl)-2H-pyrazolo[4,3-c]quinolin-2-yl]propan-1-ol] |  | > 100 µM | > 100 µM |  |  |  |  | 0.3 µM
